{"source": "patent US12172971B1", "about": "“N′-(2-naphthoyloxy)-2-(benzo[d]oxazol-2-yl)acetimidamide as an antimicrobial compound” (priority 2023, dated 2024)", "tested_on": "Bacillus cereus, Staphylococcus aureus, Pseudomonas aeruginosa, Escherichia coli, Aspergillus flavus, Chrysosporium keratinophilum", "assay": "agar plate disc-diffusion antimicrobial test", "type": "cell-based", "settings": "discs wetted with 10 μL of 10 mg/mL in DMSO; 37° C., 48 h, 72 h for fungi; gram positive and gram-negative bacteria and fungi", "description": "The agar plate disc-diffusion method was applied. Sterilized filter papers (6 mm in diameter) were wetted with 10 μL of a solution of N′-(2-naphthoyloxy)-2-(benzo[d]oxazol-2-yl)acetimidamide (3) to be tested, containing 10 mg/mL in DMSO, and the discs were allowed to air dry. The discs were then placed onto the surface of agar plates (nutrient agar for bacteria and Sabouraud's dextrose agar for fungi) seeded with the test organism. Each plate contained 15 mL of the agar medium, previously seeded with 0.2 mL of the broth culture of each organism pregrown for 18 hours. The plates were incubated at 37° C. for 48 h, and 72 h for fungi. The inhibition zones were measured in mm. Discs impregnated with DMSO were used as a control, and its inhibition zone was subtracted from the tested compound actual inhibition zone. […] The antibacterial activity was screened against gram positive bacteria namely Bacillus cereus and Staphylococcus aureus and gram-negative bacterial strains namely Pseudomonas aeruginosa and Escherichia coli, while the antifungal activity was screened against Aspergillus flavus and Chrysosporium keratinophilum."}
{"smiles": "N/C(Cc1nc2ccccc2o1)=N\\OC(=O)c1ccc2ccccc2c1", "note": "[compound 3, N′-(2-naphthoyloxy)-2-(benzo[d]oxazol-2-yl)acetimidamide]", "values": [{"measurement": "antimicrobial activity (disc-diffusion inhibition zones)", "value": "high antimicrobial activities"}]}
